Source: US10501464B2, “7-oxo-6-(sulfooxy)-1,6-diazabicyclo[3.2.1]octane-2-carboxamide containing compounds and their use in treating bacterial infections” (WOCKHARDT LIMITED, priority 2015, dated 2019)
Counter-ions that a name gives are not always drawn. Like-named read-outs stand apart in the source and are kept apart here.

Legend:
Assay in all cases: Antibacterial activity, MIC by agar dilution (CLSI)
Format in all cases: cell-based
E. coli 13351 = settings: compound tested alone
Method: (§1) The biological activity of representative compounds according to the invention against various bacterial strains was investigated. In a typical study, overnight grown bacterial cultures were diluted appropriately and inoculated on the agar media containing doubling dilutions of the test compounds. Observations for growth or no growth was performed after 16-20 hours of incubation at 35±2° C. in the ambient air. The overall procedure was performed as per Clinical and Laboratory Standards Institute (CLSI) recommendations, (Clinical and Laboratory Standards Institute (CLSI), Performance Standards for Antimicrobial Susceptibility Testing, 20th Informational Supplement, M07-A9, Volume 32, No. 2, 2012). Molten Mueller Hinton Agar (BD, USA) containing serial dilutions of each antibacterial agent were poured on to the plates and allowed to solidify. Appropriate suspensions from the freshly grown cultures were prepared in normal saline so that about 10^4CFU/spot of the organism was delivered on to the drug containing agar plates using automated multipoint inoculator (Mast, UK). The plates were incubated in Biochemical oxygen demand (BOD) incubator at 37° C. for 18 hours and then examined for growth.
(§2) Method for the determination of MIC: The Minimum Inhibitory Concentration (MIC) determination for the combinations was carried out in Muller Hinton Agar (MHA) (BD, USA) according to Clinical and Laboratory Standards Institute (CLSI) recommendations, (Clinical and Laboratory Standards Institute (CLSI), Performance Standards for Antimicrobial Susceptibility Testing, 20th Informational Supplement, M 100-S20, Volume 30, No. 1, 2010). In short, the test strains were adjusted to deliver about 10^4CFU per spot with a multipoint inoculator (Applied Quality Services, UK). The plates were poured with MHA containing doubling concentration range of representative compounds according to present invention. The plates were inoculated and were incubated at 35° C. for 18 hour. […] The Table 2 depicts the antibacterial activity profile of compounds according to present invention against various multidrug resistant bacterial strains.

E. coli 13352 = settings: compound tested alone
Method: as §1, §2

E. coli 13353 = settings: compound tested alone
Method: as §1, §2

E. coli 7 MP = settings: compound tested alone
Method: as §1, §2

E. coli M 138 = settings: compound tested alone
Method: as §1, §2

E. coli M 36 = settings: compound tested alone
Method: as §1, §2

E. coli M 49 = settings: compound tested alone
Method: as §1, §2

E. coli M 50 = settings: compound tested alone
Method: as §1, §2

[1] = system: K. pneumoniae ATCC 700603
Method: as §1, §2

K. pneumoniae H 521 = settings: compound tested alone
Method: as §1, §2

K. pneumoniae H 522 = settings: compound tested alone
Method: as §1, §2

K. pneumoniae H 523 = settings: compound tested alone
Method: as §1, §2

K. pneumoniae H 525 = settings: compound tested alone
Method: as §1, §2

P. mirabilis S 137B = settings: compound tested alone
Method: as §1, §2

[2] = Escherichia coli, 13351, E. coli 13351, read-out: MIC
[3] = Escherichia coli, 13352, E. coli 13352, read-out: MIC
[4] = Escherichia coli, 13353, E. coli 13353, read-out: MIC
[5] = Escherichia coli, 7MP, read-out: MIC
[6] = Escherichia coli, M138, E. coli M 138, read-out: MIC
[7] = Escherichia coli, M36, E. coli M 36, read-out: MIC
[8] = Escherichia coli, M49, E. coli M 49, read-out: MIC
[9] = Escherichia coli, M50, E. coli M 50, read-out: MIC
[10] = Klebsiella pneumoniae, ATCC700603, compound tested alone, read-out: MIC
[11] = Klebsiella pneumoniae, H521, K. pneumoniae H 521, read-out: MIC
[12] = Klebsiella pneumoniae, H522, K. pneumoniae H 522, read-out: MIC
[13] = Klebsiella pneumoniae, H523, K. pneumoniae H 523, read-out: MIC
[14] = Klebsiella pneumoniae, H525, K. pneumoniae H 525, read-out: MIC
[15] = Proteus mirabilis, S137B, read-out: MIC

SMILES | MIC (E. coli 13351; [2]) | MIC (E. coli 13352; [3]) | MIC (E. coli 13353; [4]) | MIC (E. coli 7 MP; [5]) | MIC (E. coli M 138; [6]) | MIC (E. coli M 36; [7]) | MIC (E. coli M 49; [8]) | MIC (E. coli M 50; [9]) | MIC [1, 10] | MIC (K. pneumoniae H 521; [11]) | MIC (K. pneumoniae H 522; [12]) | MIC (K. pneumoniae H 523; [13]) | MIC (K. pneumoniae H 525; [14]) | MIC (P. mirabilis S 137B; [15]) | further results
O=C(NOC[C@@H]1C[C@H](n2ncnn2)CN1)[C@@H]1CC[C@@H]2CN1C(=O)N2OS(=O)(=O)O [Example 1, (2S,5R)-N-{[(2S,4S)-4-(2H-tetrazol-2-yl)pyrrolidin-2-yl]methyloxy}-7-oxo-6-(sulfooxy)-1,6-diazabicyclo[3.2.1]octane-2-carboxamide] | 4 µg/mL | 4 µg/mL | 2 µg/mL | 8 µg/mL | 4 µg/mL | 1 µg/mL | 16 µg/mL | 2 µg/mL | > 32 µg/mL | 4 µg/mL | 4 µg/mL | 4 µg/mL | 4 µg/mL | > 32 µg/mL | 
O=C(NNC(=O)[C@@H]1CC[C@@H]2CN1C(=O)N2OS(=O)(=O)O)[C@@H]1C[C@@H](n2cccn2)CN1 [Example 3] |  |  |  | 8 µg/mL | 2 µg/mL | 2 µg/mL |  |  | > 32 µg/mL | 4 µg/mL | 4 µg/mL | 4 µg/mL | 4 µg/mL | > 32 µg/mL | MIC (E. coli 13351; E. coli 13351): 1 µg/mL; MIC (E. coli 13352; E. coli 13352): 1 µg/mL; MIC (E. coli 13353; E. coli 13353): 1 µg/mL; MIC (E. coli M 49; E. coli M 49): 4 µg/mL; MIC (E. coli M 50; E. coli M 50): 1 µg/mL
O=C(NOCC1C[C@H](N2CCOCC2)CN1)[C@@H]1CC[C@@H]2CN1C(=O)N2OS(=O)(=O)O (some centres unmarked) [Example 17] | 8 µg/mL | 8 µg/mL | 4 µg/mL | 16 µg/mL | 4 µg/mL | 4 µg/mL | 16 µg/mL | 8 µg/mL | > 32 µg/mL | 8 µg/mL | 8 µg/mL | 8 µg/mL | 8 µg/mL |  | 
O=C(NOCC1C[C@@H](N2CCCCC2)CN1)[C@@H]1CC[C@@H]2CN1C(=O)N2OS(=O)(=O)O (some centres unmarked) [Example 19] | 8 µg/mL | 8 µg/mL | 4 µg/mL | > 32 µg/mL | 8 µg/mL | 8 µg/mL | 32 µg/mL | 8 µg/mL | > 32 µg/mL | 8 µg/mL | 8 µg/mL | 8 µg/mL | 8 µg/mL |  | 
O=C(NOCC1C[C@@H](N2CCNCC2)CN1)[C@@H]1CC[C@@H]2CN1C(=O)N2OS(=O)(=O)O (some centres unmarked) [Example 20] | 8 µg/mL | 16 µg/mL | 8 µg/mL | 16 µg/mL | 4 µg/mL | 4 µg/mL | 16 µg/mL | 8 µg/mL | > 32 µg/mL | 8 µg/mL | 8 µg/mL | 8 µg/mL | 8 µg/mL |  | 
CN1CCN([C@H]2CNC(CONC(=O)[C@@H]3CC[C@@H]4CN3C(=O)N4OS(=O)(=O)O)C2)CC1 (some centres unmarked) [Example 21] | 8 µg/mL | 8 µg/mL | 4 µg/mL | 16 µg/mL | 4 µg/mL | 4 µg/mL | 16 µg/mL | 8 µg/mL | > 32 µg/mL | 8 µg/mL | 4 µg/mL | 4 µg/mL | 8 µg/mL |  | 
CN1CCN([C@H]2CNC(CONC(=O)[C@@H]3CC[C@@H]4CN3C(=O)N4OS(=O)(=O)O)C2)CC1 (some centres unmarked) [Example 22] |  |  |  |  |  |  |  |  |  |  |  |  |  |  | MIC (E. coli 13351; E. coli 13351): 8 µg/mL; MIC (E. coli 13352; E. coli 13352): 16 µg/mL; MIC (E. coli 13353; E. coli 13353): 4 µg/mL; MIC (E. coli 7 MP): 16 µg/mL; MIC (E. coli M 138; E. coli M 138): 8 µg/mL; MIC (E. coli M 36; E. coli M 36): 4 µg/mL; MIC (E. coli M 49; E. coli M 49): 8 µg/mL; MIC (E. coli M 50; E. coli M 50): 8 µg/mL; MIC ([1]; compound tested alone): >32 µg/mL; MIC (K. pneumoniae H 521; K. pneumoniae H 521): 8 µg/mL; MIC (K. pneumoniae H 522; K. pneumoniae H 522): 8 µg/mL; MIC (K. pneumoniae H 523; K. pneumoniae H 523): 8 µg/mL; MIC (K. pneumoniae H 525; K. pneumoniae H 525): 8 µg/mL
O=C(NNC(=O)[C@@H]1CC[C@@H]2CN1C(=O)N2OS(=O)(=O)O)C1C[C@H](n2ccnc2)CN1 (some centres unmarked) [Example 34] |  |  |  |  |  |  |  |  |  |  |  |  |  |  | MIC (E. coli 13351; E. coli 13351): 4 µg/mL; MIC (E. coli 13352; E. coli 13352): 8 µg/mL; MIC (E. coli 13353; E. coli 13353): 4 µg/mL; MIC (E. coli 7 MP): 16 µg/mL; MIC (E. coli M 36; E. coli M 36): 4 µg/mL; MIC (E. coli M 49; E. coli M 49): 4 µg/mL; MIC (E. coli M 50; E. coli M 50): 8 µg/mL; MIC ([1]; compound tested alone): >32 µg/mL; MIC (K. pneumoniae H 521; K. pneumoniae H 521): 8 µg/mL; MIC (K. pneumoniae H 522; K. pneumoniae H 522): 8 µg/mL; MIC (K. pneumoniae H 523; K. pneumoniae H 523): 8 µg/mL; MIC (K. pneumoniae H 525; K. pneumoniae H 525): 8 µg/mL; MIC (P. mirabilis S 137B): >32 µg/mL

Further lines, with some results ahead:

MIC (E. coli 13351; [2]) | MIC (E. coli 13352; [3]) | MIC (E. coli 13353; [4]) | MIC (E. coli 7 MP; [5]) | MIC (E. coli M 138; [6]) | MIC (E. coli M 36; [7]) | MIC (E. coli M 49; [8]) | MIC (E. coli M 50; [9]) | MIC [1, 10] | MIC (K. pneumoniae H 521; [11]) | MIC (K. pneumoniae H 522; [12]) | MIC (K. pneumoniae H 523; [13]) | MIC (K. pneumoniae H 525; [14]) | MIC (P. mirabilis S 137B; [15]) | SMILES | further results
1 µg/mL | 1 µg/mL | 1 µg/mL | 2 µg/mL | 1 µg/mL | 1 µg/mL | 4 µg/mL | 1 µg/mL | > 32 µg/mL | 1 µg/mL | 1 µg/mL | 1 µg/mL | 1 µg/mL |  | O=C(NOC[C@H]1C[C@H](N2CCOCC2)CN1)[C@@H]1CC[C@@H]2CN1C(=O)N2OS(=O)(=O)O [Example 2, Trifluoro acetic acid salt of (2S,5R)-N-{[(2R,4S)-4-(morpholin-4-yl)pyrrolidin-2-yl]methoxy}-7-oxo-6-(sulfooxy)-1,6-diazabicyclo[3.2.1]octane-2-carboxamide] | 
1 µg/mL | 1 µg/mL | 1 µg/mL | 2 µg/mL | 1 µg/mL | 1 µg/mL | 8 µg/mL | 1 µg/mL | > 32 µg/mL | 4 µg/mL | 4 µg/mL | 4 µg/mL | 4 µg/mL | > 32 µg/mL | O=C(NOC[C@@H]1C[C@H](n2nccn2)CN1)[C@@H]1CC[C@@H]2CN1C(=O)N2OS(=O)(=O)O [Example 5] | 
2 µg/mL | 2 µg/mL | 1 µg/mL | 4 µg/mL | 1 µg/mL | 1 µg/mL | 8 µg/mL | 1 µg/mL | > 32 µg/mL | 2 µg/mL | 2 µg/mL | 2 µg/mL | 2 µg/mL | > 32 µg/mL | O=C(NOC[C@@H]1C[C@H](n2ccnn2)CN1)[C@@H]1CC[C@@H]2CN1C(=O)N2OS(=O)(=O)O [Example 6] | 
1 µg/mL | 1 µg/mL | 0.5 µg/mL | 2 µg/mL | 1 µg/mL | 0.5 µg/mL | 4 µg/mL | 1 µg/mL | > 32 µg/mL | 2 µg/mL | 2 µg/mL | 2 µg/mL | 2 µg/mL | > 32 µg/mL | O=C(NOC[C@H]1C[C@H](n2ccnc2)CN1)[C@@H]1CC[C@@H]2CN1C(=O)N2OS(=O)(=O)O [Example 7] | 
1 µg/mL | 1 µg/mL | 0.5 µg/mL | 2 µg/mL | 1 µg/mL | 0.5 µg/mL | 4 µg/mL | 1 µg/mL | > 32 µg/mL | 1 µg/mL | 1 µg/mL | 1 µg/mL | 1 µg/mL | > 32 µg/mL | O=C(NOC[C@@H]1CC(n2cccn2)CN1)[C@@H]1CC[C@@H]2CN1C(=O)N2OS(=O)(=O)O (some centres unmarked) [Example 8] | 
2 µg/mL | 2 µg/mL | 1 µg/mL | 4 µg/mL | 2 µg/mL | 2 µg/mL | 16 µg/mL | 2 µg/mL | > 32 µg/mL | 2 µg/mL | 2 µg/mL | 2 µg/mL | 2 µg/mL |  | O=C(NOCC1C[C@H](N2CCCCC2)CN1)[C@@H]1CC[C@@H]2CN1C(=O)N2OS(=O)(=O)O (some centres unmarked) [Example 18] | 
